Like-named read-outs stand apart in the source and are kept apart here.
Columns and labels:
[1] = molecular target: Mnk1 (Homo sapiens (Human), UniProt Q9BUB5); test: Mnk1 kinase inhibition, ADP-Glo ADP monitoring assay; format: biochemical
Description: (§1) The synthesized compounds then were tested for inhibition of the kinase activity (IC50) of Mnk1 and/or Mnk2 using the ADP monitoring assay for kinases described in Zegzouti, H.; Zdanovskaia, M.; Hsiao, K.; Goueli, S. A., ADP-Glo: A Bioluminescent and homogeneous ADP monitoring assay for kinases.

[2] = molecular target: Mnk1; test: Cellular inhibition of Mnk1, flow cytometry of phospho-eIF-4E (Ser209), MV4-11 cells; format: cell-based
Description: (§2) To evaluate inhibition of Mnk1 in cells, we utilized a flow cytometry-based assay based on activation of eIF-4E, the downstream target of Mnk1. The assay utilizes flow cytometry to quantitatively measure the amount of eIF-4E that is phosphorylated at residue Ser209 in cell lysate from U937 or MV4-11 cell lines. Cells grown in the presence of serum were treated with vehicle or test compounds across a range of concentrations. Levels of phospho-eIF-4E were measured and IC50 values were determined by logistic regression to quantify the potency of each compound.

[3] = molecular target: Mnk2 (Homo sapiens (Human), UniProt Q9HBH9); test: Mnk2 kinase inhibition, ADP-Glo ADP monitoring assay; format: biochemical
Chain of Mnk2 (Q9HBH9 whole entry): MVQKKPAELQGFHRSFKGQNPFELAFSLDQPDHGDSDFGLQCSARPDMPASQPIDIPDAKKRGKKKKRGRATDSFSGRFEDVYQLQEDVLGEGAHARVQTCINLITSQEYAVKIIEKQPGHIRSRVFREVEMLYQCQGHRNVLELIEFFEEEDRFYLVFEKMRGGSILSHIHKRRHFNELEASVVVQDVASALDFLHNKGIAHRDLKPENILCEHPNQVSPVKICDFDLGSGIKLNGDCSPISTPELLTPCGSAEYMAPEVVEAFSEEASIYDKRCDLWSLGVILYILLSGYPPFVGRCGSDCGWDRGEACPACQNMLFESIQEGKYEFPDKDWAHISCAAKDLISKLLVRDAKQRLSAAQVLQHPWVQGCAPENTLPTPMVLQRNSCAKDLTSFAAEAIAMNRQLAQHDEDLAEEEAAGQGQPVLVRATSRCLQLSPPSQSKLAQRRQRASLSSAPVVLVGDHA
Description: as §1

[4] = molecular target: Mnk1; test: Cellular inhibition of Mnk1, flow cytometry of phospho-eIF-4E (Ser209), U937 cells; format: cell-based
Description: as §2

[5] = read-out: Mnk1 inhibition IC50 (+,++,+++)
[6] = unit inferred, read-out: Mnk1 IC50
[7] = read-out: MV4-11 pEIF4E cellular flow IC50 (+,++,+++), flow cytometry
[8] = ADP-Glo kinase assay, read-out: Mnk2 inhibition IC50 (+,++,+++)
[9] = ADP-Glo kinase assay, unit inferred, read-out: Mnk2 IC50
[10] = read-out: U937 pEIF4E cellular flow IC50 (+,++,+++), flow cytometry
[11] = ADP-Glo kinase assay, read-out: Mnk2 IC50

Chain of Mnk1 (Homo sapiens (Human), UniProt Q9BUB5) (Q9BUB5 whole entry): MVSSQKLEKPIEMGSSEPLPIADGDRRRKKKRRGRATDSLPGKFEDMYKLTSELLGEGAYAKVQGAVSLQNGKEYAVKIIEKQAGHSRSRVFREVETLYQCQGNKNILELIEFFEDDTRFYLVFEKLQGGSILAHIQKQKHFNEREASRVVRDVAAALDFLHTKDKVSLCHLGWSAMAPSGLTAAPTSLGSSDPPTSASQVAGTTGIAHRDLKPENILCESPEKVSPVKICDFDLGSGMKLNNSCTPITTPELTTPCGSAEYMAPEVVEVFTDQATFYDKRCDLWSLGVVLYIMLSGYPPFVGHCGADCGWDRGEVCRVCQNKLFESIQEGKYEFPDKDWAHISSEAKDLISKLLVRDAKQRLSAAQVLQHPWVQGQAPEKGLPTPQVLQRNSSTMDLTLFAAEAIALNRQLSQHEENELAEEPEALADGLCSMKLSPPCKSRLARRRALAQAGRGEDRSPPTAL

Row | IC50 [1, 5] [nM] | IC50 [3, 8] [nM] | IC50 ([1]; read-out: Mnk1 IC50) [nM] | IC50 [3, 11] [nM] | SMILES | other results
1 | < 1000 | < 1000 | – | – | Clc1cnc(OCCc2ccncc2)nc1-n1cnc2ccccc21 [NUCC-0196254, 1-(5-chloro-2-(2-(pyridin-4-yl)ethoxy)pyrimidin-4-yl)-1H-benzo[d]imidazole] | IC50 [1, 6]: 54 nM; IC50 [2, 7]: < 1000 nM; IC50 [3, 9]: 9.6 nM
2 | < 1000 | < 1000 | – | – | N#Cc1cnc(OC2CCNC2)nc1-n1cnc2ccccc21 (stereo not shown) [NUCC-0200793] | IC50 [4, 10]: < 1000 nM; IC50 [2, 7]: < 1000 nM
3 | < 1000 | < 1000 | – | – | Clc1cnc(OCCc2ccccn2)nc1-n1cnc2ccccc21 [NUCC-0200807] | IC50 [4, 10]: < 1000 nM; IC50 [2, 7]: < 1000 nM
4 | < 1000 | < 1000 | – | – | Brc1cnc(OC2CCNC2)nc1-n1cnc2ccccc21 (stereo not shown) [NUCC-0201895] | –
5 | < 1000 | < 1000 | – | – | CC(C)(COc1ncc(Cl)c(-n2cnc3ccccc32)n1)c1ccnc(F)c1 [NUCC-0201914] | –
6 | < 1000 | < 1000 | – | – | NC1CC(Oc2ncc(Br)c(-n3cnc4ccccc43)n2)C1 (stereo not shown) [NUCC-0201893] | –
7 | 1000 to 10000 | – | – | – | CC1=C(Oc2ncc(Cl)c(-n3cnc4ccccc43)n2)C(=O)CO1 [NUCC-0201019] | IC50 [3]: 1000 to 10000 nM
8 | – | – | 11000 | 1400 | COC(=O)CNc1ncc(Cl)c(-n2cnc3ccccc32)n1 [NUCC-0176356] | –
9 | 1000 to 10000 | – | – | – | CC1=C(Oc2ncc(Cl)c(-n3cnc4ccccc43)n2)C(=O)C(C)O1 (stereo not shown) [NUCC-0201018] | IC50 [3]: 1000 to 10000 nM
10 | – | – | 13000 | 2400 | Clc1cnc(NCCc2c[nH]c3ccccc23)nc1-n1cnc2ccccc21 [NUCC-0176355] | –
11 | – | – | 450 | 130 | OCCNc1ncc(Cl)c(-n2cnc3ccccc32)n1 [NUCC-0176358] | –
12 | < 1000 | < 1000 | – | – | Nc1ccc(CCOc2ncc(Cl)c(-n3cnc4ccccc43)n2)cc1 [NUCC-0201892] | –
13 | < 1000 | < 1000 | – | – | CC1(C)COC(=O)C1Oc1ncc(Cl)c(-n2cnc3ccccc32)n1 (stereo not shown) [NUCC-0201017] | –
14 | < 1000 | < 1000 | – | – | Clc1cnc(NC2CCNC2)nc1-n1cnc2ccccc21 (stereo not shown) [NUCC-0201007] | –
15 | > 10000 | < 1000 | – | – | Fc1ccc(CCNc2ncc(Cl)c(-n3cnc4ccccc43)n2)cc1 [NUCC-0200783] | –
16 | < 1000 | < 1000 | – | – | Clc1cnc(OC2CCOCC2)nc1-n1cnc2ccccc21 [NUCC-0200804] | –
17 | < 1000 | < 1000 | – | – | CC(C)(COc1ncc(C#N)c(-n2cnc3ccccc32)n1)c1ccnc(F)c1 [NUCC-0201917] | –
18 | < 1000 | < 1000 | – | – | Brc1cnc(OCCc2ccncc2)nc1-n1cnc2ccccc21 [NUCC-0200789] | –
19 | 1000 to 10000 | – | – | – | Clc1cnc(NC2CCN(c3nccn4ccnc34)C2)nc1-n1cnc2ccccc21 (stereo not shown) [NUCC-0201015] | IC50 [3]: 1000 to 10000 nM
20 | < 1000 | < 1000 | – | – | Fc1cc(CCOc2ncc(Cl)c(-n3cnc4ccccc43)n2)ccn1 [NUCC-0201046, 1-(5-chloro-2-(2-(2-fluoropyridin-4-yl)ethoxy)pyrimidin-4-yl)-1H-benzo[d]imidazole] | –
21 | > 10000 | < 1000 | – | – | COc1ccc2c(c1)ncn2-c1nc(NCCc2ccncc2)ncc1Cl [NUCC-0200910] | –
22 | < 1000 | < 1000 | – | – | Fc1cccc(CCOc2ncc(Cl)c(-n3cnc4ccccc43)n2)c1 [NUCC-0201906] | –
23 | < 1000 | < 1000 | – | – | Fc1ccc2c(ncn2-c2nc(OCCc3ccccn3)ncc2Cl)c1F [NUCC-0201662] | –

The remaining lines, values behind:

Row | SMILES | IC50 [1, 5] [nM] | IC50 [3, 8] [nM] | IC50 ([1]; read-out: Mnk1 IC50) [nM] | IC50 [3, 11] [nM] | other results
24 | c1ccc2c(c1)ccn2-c1ccnc(NCCc2cnc[nH]2)n1 [NUCC-0060958] | – | – | 900 | 95 | IC50 ([4]; read-out: U937 pEIF4E IC50, phospho-eIF-4E Ser209, flow cytometry): 230 nM; IC50 ([2]; read-out: MV4-11 pEIF4E IC50, phospho-eIF-4E Ser209, flow cytometry): 47 nM
25 | N#Cc1cnc(OCCN2CCCC2=O)nc1-n1cnc2ccccc21 [NUCC-0200788] | < 1000 | < 1000 | – | – | IC50 [4, 10]: < 1000 nM; IC50 [2, 7]: < 1000 nM
26 | CN(C)CCNc1nccc(-n2cnc3ccccc32)n1 [NUCC-0125582] | – | – | 500 | 48 | –
27 | N#Cc1cnc(NCCc2ccncc2)nc1-n1cncn1 [NUCC-0196250] | – | – | – | – | IC50 [1, 6]: > 10000 nM; IC50 [3, 9]: > 10000 nM
28 | N#Cc1cnc(OC2CCCOC2)nc1-n1cnc2ccccc21 (stereo not shown) [NUCC-0200795] | > 10000 | – | – | – | IC50 [3]: 1000 to 10000 nM
29 | O=C1NCCCCC1Nc1ccnc(-n2cnc3ccccc32)n1 (stereo not shown) [NUCC-0176368] | – | – | 11000 | 5200 | –
30 | CCNC(=O)Nc1nccc(-n2cnc3ccccc32)n1 [NUCC-0196222] | – | – | – | – | IC50 [1, 6]: > 10000 nM; IC50 [3, 9]: 2200 nM
31 | Cc1cc2ncn(-c3nc(NCCc4ccncc4)ncc3Cl)c2cc1C [NUCC-0200797] | > 10000 | < 1000 | – | – | –
32 | COC1CCC(Nc2nccc(-n3cnc4ccccc43)n2)CC1 (stereo not shown) [NUCC-0176167] | – | – | 300 | 60 | –
33 | NC1CC(Oc2ncc(Cl)c(-n3cnc(-c4ccc(Cl)c(C(F)(F)F)c4)c3)n2)C1 (stereo not shown) [NUCC-0201247, 3-((5-chloro-4-(4-(4-chloro-3-(trifluoromethyl)phenyl)-1H-imidazol-1-yl)pyrimidin-2-yl)oxy)cyclobutanamine] | 1000 to 10000 | – | – | – | IC50 [3]: 1000 to 10000 nM
34 | COC1CCC(Nc2nccc(-n3cnc4ccccc43)n2)CC1 (stereo not shown) [NUCC-0176153] | – | – | 480 | 81 | –
35 | c1ccc(Cn2cc(-c3ccnc(NCCc4ccncc4)n3)cn2)cc1 [NUCC-0060972] | – | – | 19000 | 2500 | –
36 | OC1Cc2ccccc2C1Nc1nccc(-n2cnc3ccccc32)n1 (stereo not shown) [NUCC-0176369] | – | – | – | – | Mnk1 IC50 [1]: no activity; Mnk2 IC50 ([3]; ADP-Glo kinase assay): no activity
37 | O=C(Nc1cc(C(F)(F)F)cc(C(F)(F)F)c1)Nc1nccc(-n2cnc3ccccc32)n1 [NUCC-0176362] | – | – | – | – | Mnk1 IC50 [1]: no activity; Mnk2 IC50 ([3]; ADP-Glo kinase assay): no activity
38 | FC(F)(F)c1cnc(OC2CCNC2)nc1-n1cnc2ccccc21 (stereo not shown) [NUCC-0201897] | < 1000 | < 1000 | – | – | –
39 | O=C1CC(Nc2ncc(C(F)(F)F)c(-n3cnc4ccccc43)n2)CN1 (stereo not shown) [NUCC-0201890] | < 1000 | < 1000 | – | – | –
40 | NC(=O)c1ccc(Nc2nccc(-n3cnc4ccccc43)n2)cc1 [NUCC-0125594] | – | – | 700 | 30 | –
41 | COc1cccc(-n2cc(-c3ccnc(NCCc4ccncc4)c3)cn2)c1 [NUCC-0125601] | – | – | 5000 | 1700 | –
42 | O=[N+](O)c1ccc2c(c1)ncn2-c1nc(NCCc2ccncc2)ncc1Cl [NUCC-0200798] | > 10000 | – | – | – | IC50 [3]: 1000 to 10000 nM
43 | O=C1CCCN1CCCNc1ccnc(-n2cnc3ccccc32)n1 [NUCC-0176345] | – | – | 10000 | 2600 | –
44 | Brc1cnc(NCCc2ccncc2)nc1-n1cnc2ccccc21 [NUCC-0196228] | – | – | – | – | IC50 [1, 6]: 550 nM; IC50 [3, 9]: 69 nM

Row | SMILES | IC50 [1, 5] [nM] | IC50 [3, 8] [nM] | IC50 ([1]; read-out: Mnk1 IC50) [nM] | IC50 [3, 11] [nM] | other results
45 | S=c1oc2ccccc2n1-c1ccnc(NCCc2ccncc2)n1 [NUCC-0176354] | – | – | 10000 | 4900 | –
46 | O[C@H](c1ccccc1)[C@@H](Nc1nccc(-n2cnc3ccccc32)n1)c1ccccc1 [NUCC-0196257] | – | – | – | – | IC50 [1, 6]: 1300 nM; IC50 [3, 9]: 310 nM
47 | c1ccc2c(c1)CCN2c1ccnc(NCCc2ccncc2)n1 [NUCC-0176233] | – | – | 8500 | 4700 | –
48 | CCCn1ncc(-c2ccnc(NCc3nccn3CC)n2)c1C [NUCC-0054147] | – | – | 6000 | 16000 | –
49 | c1ccc2c(c1)CCN2c1ccnc(N[C@@H]2CCOC2)n1 [NUCC-0176232] | – | – | 4600 | 2300 | –
50 | Clc1cnc(Oc2cccnc2)nc1-n1cnc2ccccc21 [NUCC-0200810, 1-(5-chloro-2-(pyridin-3-yloxy)pyrimidin-4-yl)-1H-benzo[d]imidazole] | – | – | – | – | Mnk1 inhibition IC50 (+,++,+++) [1]: no activity; Mnk2 inhibition IC50 (+,++,+++) ([3]; ADP-Glo kinase assay): no activity
51 | COc1cccc(-n2cc(-c3ccnc(NC4CCNC4)n3)cn2)c1 (stereo not shown) [NUCC-0125590] | – | – | 6000 | 780 | –
52 | Clc1cnc(NCCc2ccncc2)nc1-n1nnc2ccccc21 [NUCC-0200801] | > 10000 | – | – | – | IC50 [3]: 1000 to 10000 nM
53 | c1ccc2c(c1)cnn2-c1nccc(NCCc2ccncc2)n1 [NUCC-0176347] | – | – | 8100 | 5600 | –
54 | c1cc(NCCc2ccncc2)nc(-n2cnc3ccccc32)c1 [NUCC-0196235] | – | – | – | – | IC50 [1, 6]: 100 nM; IC50 [3, 9]: 10 nM
55 | CC(O)CNc1ccnc(-n2cnc3ccccc32)n1 (stereo not shown) [NUCC-0176348] | – | – | 710 | 130 | –
56 | c1cc(CCNc2nccc(-n3cnc4cnccc43)n2)ccn1 [NUCC-0176143] | – | – | 4300 | 1100 | –
57 | NC1CC(Oc2nc(C3CC3)c(Cl)c(-n3cnc4ccccc43)n2)C1 (stereo not shown) [NUCC-0201915, 3-((4-(1H-benzo[d]imidazol-1-yl)-5-chloro-6-cyclopropylpyrimidin-2-yl)oxy)cyclobutanamine] | 1000 to 10000 | – | – | – | IC50 [3]: 1000 to 10000 nM
58 | c1ccc2c(c1)ncn2-c1ccnc(Nc2ccc(-n3cccn3)cc2)n1 [NUCC-0125593] | – | – | 650 | 39 | –
59 | N#Cc1cnc(NCCc2ccncc2)nc1-n1ccnc1 [NUCC-0196308] | – | – | – | – | IC50 [1, 6]: 2100 nM; IC50 [3, 9]: 6900 nM
60 | c1ccc2c(c1)ncn2-c1ccnc(NC2COC2)n1 [NUCC-0176150] | – | – | 420 | 90 | –
61 | Nc1cc(-n2cnc3ccccc32)nc(NCc2cccnc2)n1 [NUCC-0196223] | – | – | – | – | IC50 [1, 6]: > 10000 nM; IC50 [3, 9]: 1800 nM
62 | c1ccc2c(c1)ccn2-c1cc(NCCc2ccncc2)ncn1 [NUCC-0176285] | – | – | 4700 | 6000 | –
63 | OCCNc1nccc(-n2cnc3ccccc32)n1 [NUCC-0176352] | – | – | 650 | 170 | –
64 | NC1CC(Oc2ncc(C3CC3)c(-n3cnc4ccccc43)n2)C1 (stereo not shown) [NUCC-0201900] | < 1000 | < 1000 | – | – | –

Source: patent US10851082B2, “Substituted aromatic n-heterocyclic compounds as inhibitors of mitogen-activated protein kinase interacting kinase 1 (MNK1) and 2 (MNK2)” (Northwestern University, priority 2015, dated 2020)
